Values of other authors in patent US5709992A, “Method for disinfecting red blood cells” (priority 1995, dated 1998).

Target: erythrocyte glutathione (GSH) peroxidase (Homo sapiens, UniProt P07203)
Conditions: read-out: Km (peroxide), effective at very low concentrations of peroxide

Sequence of erythrocyte glutathione (GSH) peroxidase (P07203 whole entry): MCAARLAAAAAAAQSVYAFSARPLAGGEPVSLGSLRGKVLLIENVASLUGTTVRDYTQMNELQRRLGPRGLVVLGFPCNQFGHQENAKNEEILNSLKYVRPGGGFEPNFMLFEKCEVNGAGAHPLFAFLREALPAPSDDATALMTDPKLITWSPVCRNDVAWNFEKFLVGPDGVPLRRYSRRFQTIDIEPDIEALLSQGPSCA

Km: 1 µM
SMILES: OO [peroxide, hydrogen peroxide]
